This note sets out measurements from US20260138961A1, “MODULATORS OF MITOCHONDRIAL DNA REPLICATION” (Pretzel Therapeutics, Inc., priority 2022, published 2026).

What is called AC50 is the concentration giving half of the maximal activity seen.

This test has as its target T1, POLγA:G848S (Homo sapiens, UniProt P54098, G848S).
T1 sequence (P54098 1-1239 G848S): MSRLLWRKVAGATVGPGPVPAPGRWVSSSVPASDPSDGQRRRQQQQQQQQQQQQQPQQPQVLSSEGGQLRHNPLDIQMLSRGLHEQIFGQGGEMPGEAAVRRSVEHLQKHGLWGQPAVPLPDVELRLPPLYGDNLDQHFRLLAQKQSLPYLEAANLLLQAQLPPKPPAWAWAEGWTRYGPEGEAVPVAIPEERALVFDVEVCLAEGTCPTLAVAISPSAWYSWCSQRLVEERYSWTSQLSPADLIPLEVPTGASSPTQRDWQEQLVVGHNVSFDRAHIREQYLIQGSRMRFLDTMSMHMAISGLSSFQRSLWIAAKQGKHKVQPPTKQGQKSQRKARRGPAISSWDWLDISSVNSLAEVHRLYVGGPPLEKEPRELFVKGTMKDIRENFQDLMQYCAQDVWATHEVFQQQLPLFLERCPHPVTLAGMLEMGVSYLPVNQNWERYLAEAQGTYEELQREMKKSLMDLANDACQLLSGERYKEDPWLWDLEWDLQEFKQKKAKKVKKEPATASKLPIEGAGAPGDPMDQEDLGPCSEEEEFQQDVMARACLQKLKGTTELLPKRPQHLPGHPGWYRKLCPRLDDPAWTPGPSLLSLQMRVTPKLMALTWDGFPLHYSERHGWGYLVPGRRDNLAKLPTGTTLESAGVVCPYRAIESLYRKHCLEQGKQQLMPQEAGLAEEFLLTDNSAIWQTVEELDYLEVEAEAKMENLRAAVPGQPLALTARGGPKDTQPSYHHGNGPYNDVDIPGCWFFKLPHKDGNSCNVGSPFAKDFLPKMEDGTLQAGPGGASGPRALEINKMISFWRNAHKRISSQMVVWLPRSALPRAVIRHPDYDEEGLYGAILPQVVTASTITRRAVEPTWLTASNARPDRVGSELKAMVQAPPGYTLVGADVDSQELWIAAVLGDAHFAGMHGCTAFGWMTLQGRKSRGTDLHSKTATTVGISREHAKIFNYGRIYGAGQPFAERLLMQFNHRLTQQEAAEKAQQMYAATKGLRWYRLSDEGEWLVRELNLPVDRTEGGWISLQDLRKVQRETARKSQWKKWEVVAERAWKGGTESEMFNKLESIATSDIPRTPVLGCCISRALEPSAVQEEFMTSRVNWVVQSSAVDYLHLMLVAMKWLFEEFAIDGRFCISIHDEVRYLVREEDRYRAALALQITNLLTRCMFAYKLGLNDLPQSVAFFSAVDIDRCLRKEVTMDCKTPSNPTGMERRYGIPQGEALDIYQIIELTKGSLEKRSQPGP
T1 sequence (Q9UHN1 1-485 partner): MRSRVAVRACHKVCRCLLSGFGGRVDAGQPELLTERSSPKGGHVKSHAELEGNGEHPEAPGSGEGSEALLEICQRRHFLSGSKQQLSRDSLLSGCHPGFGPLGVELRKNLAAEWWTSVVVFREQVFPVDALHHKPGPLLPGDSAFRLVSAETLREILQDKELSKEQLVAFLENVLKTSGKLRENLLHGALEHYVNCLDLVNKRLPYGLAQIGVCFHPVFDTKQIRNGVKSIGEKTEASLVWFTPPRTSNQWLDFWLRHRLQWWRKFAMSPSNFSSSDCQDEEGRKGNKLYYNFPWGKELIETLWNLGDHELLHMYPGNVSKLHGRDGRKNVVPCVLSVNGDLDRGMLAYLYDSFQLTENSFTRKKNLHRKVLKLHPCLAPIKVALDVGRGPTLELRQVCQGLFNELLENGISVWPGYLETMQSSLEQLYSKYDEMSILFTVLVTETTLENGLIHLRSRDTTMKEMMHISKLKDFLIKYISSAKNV
Put plainly: DNA polymerization assay, POLγA:G848S mutant. Format: biochemical. To be noted: stimulation of polymerase activity, primed M13mp18 ssDNA, 37° C. 2 hours; read-out: G848S AC50.
Turning to `Cc1cc(S(=O)(=O)Nc2cccc(C(=O)NCCO)c2)c(C)cc1Cl` [Example 53, 3-((4-chloro-2,5-dimethylphenyl)sulfonamido)-N-(2-hydroxyethyl)benzamide], the concentration at half-maximal activity (AC50) amounted to 63 µM.

With `Cc1cc(S(=O)(=O)Nc2cccc(C(=O)N3CCC[C@H]3C)c2F)c(C)cc1Cl` [Example 57, (R)-4-chloro-N-(2-fluoro-3-(2-methylpyrrolidine-1-carbonyl)phenyl)-2,5-dimethylbenzenesulfonamide], the AC50 is greater than 100 µM.

Consider `Cc1cc(S(=O)(=O)Nc2csc(C3CCOCC3)n2)c(C)cc1Cl` [Example 167, 4-chloro-2,5-dimethyl-N-(2-(tetrahydro-2H-pyran-4-yl)thiazol-4-yl)benzenesulfonamide], for which the half-maximal activity concentration (AC50) came to 2 µM.

Regarding `Cc1cc(S(=O)(=O)Nc2ccc(F)c(C(=O)N3CCC[C@H]3C)c2)c(C)cc1Cl` [Example 49, (R)-4-chloro-N-(4-fluoro-3-(2-methylpyrrolidine-1-carbonyl)phenyl)-2,5-dimethylbenzenesulfonamide], the half-maximal activity concentration (AC50) was found to be 14 µM.

Take `Cc1ccc(C)c(S(=O)(=O)Nc2cccc(C(=O)N3CCSCC3C(N)=O)c2)c1` (stereo not drawn) [Example 41, 4-(3-((2,5-dimethylphenyl)sulfonamido)benzoyl) thiomorpholine-3-carboxamide]: the AC50 was 21 µM.

Take `Cc1ccc(C)c(S(=O)(=O)Nc2cccc(C(N)=O)c2)c1` [Example 27, 3-((2,5-dimethylphenyl)sulfonamido)benzamide]: the AC50 is greater than 100 µM.

On to `Cc1cc(S(=O)(=O)Nc2cccc(C(=O)N[C@H](C)CO)c2)c(C)cc1Cl` [Example 51, (R)-3-((4-chloro-2,5-dimethylphenyl)sulfonamido)-N-(1-hydroxypropan-2-yl)benzamide], for which the concentration at half-maximal activity (AC50) turned out to be 44 µM.

In the case of `COc1ccc(S(=O)(=O)Nc2cccc(C(=O)N3CCSCC3C#N)c2)cc1` (stereo not drawn) [Example 34, N-(3-(3-cyanothiomorpholine-4-carbonyl)phenyl)-4-methoxybenzenesulfonamide], the AC50 stood at 37 µM.

Turning to `CC[C@@H]1CCCN1C(=O)c1cccc(NS(=O)(=O)c2cc(C)c(Cl)cc2C)c1` [Example 65, (R)-4-chloro-N-(3-(2-ethylpyrrolidine-1-carbonyl)phenyl)-2,5-dimethylbenzenesulfonamide], the AC50 came to 12 µM.

On to `N#CC1CSCCN1C(=O)c1cccc(NS(=O)(=O)c2cccc(C(F)(F)F)c2)c1` (stereo not drawn) [Example 35, N-(3-(3-cyanothiomorpholine-4-carbonyl)phenyl)-3-(trifluoromethyl)benzenesulfonamide], for which the half-maximal activity concentration (AC50) is greater than 100 µM.

In the case of `Cc1ccc(C)c(S(=O)(=O)Nc2ccc(C(=O)N[C@@H](C)C3CC3)cc2)c1` [Example 39, (S)-N-(1-cyclopropylethyl)-4-((2,5-dimethylphenyl)sulfonamido)benzamide], the concentration at half-maximal activity (AC50) was greater than 100 µM.

As to `Cc1ccc(C)c(S(=O)(=O)Nc2cncc(C(=O)N3CCOCC3)c2)c1` [Example 38, 2,5-dimethyl-N-(5-(morpholine-4-carbonyl)pyridin-3-yl)benzenesulfonamide], the half-maximal activity concentration (AC50) was greater than 100 µM.

For the compound `Cc1cc(S(=O)(=O)Nc2csc(C(=O)N3CCC[C@@H]3C)n2)c(C)cc1Cl` [Example 175, (S)-4-chloro-2,5-dimethyl-N-(2-(2-methylpyrrolidine-1-carbonyl)thiazol-4-yl)benzenesulfonamide], the half-maximal activity concentration (AC50) was 1 µM.

Turning to `Cc1cc(S(=O)(=O)Nc2csc(-c3ccn(C)n3)n2)c(C)cc1Cl` [Example 181, 4-chloro-2,5-dimethyl-N-(2-(1-methyl-1H-pyrazol-3-yl)thiazol-4-yl)benzenesulfonamide], the AC50 came out at 0.7 µM.

As for `Cc1cc(S(=O)(=O)Nc2cccc(C(=O)N3CCN(CCO)CC3)c2)c(C)cc1Cl` [Example 55, 4-chloro-N-(3-(4-(2-hydroxyethyl)piperazine-1-carbonyl)phenyl)-2,5-dimethylbenzenesulfonamide], the half-maximal activity concentration (AC50) is greater than 100 µM.

Turning to `Cc1cc(S(=O)(=O)Nc2csc(C(=O)N3CCCC3)n2)c(C)cc1Cl` [Example 166, 4-chloro-2,5-dimethyl-N-(2-(pyrrolidine-1-carbonyl)thiazol-4-yl)benzenesulfonamide], the AC50 worked out at 0.6 µM.

In the case of `Cc1cc(S(=O)(=O)N[C@H]2CCCN(c3ccccc3)C2)c(C)cc1Cl` [Example 161, (S)-4-chloro-2,5-dimethyl-N-(1-phenylpiperidin-3-yl)benzenesulfonamide], the concentration at half-maximal activity (AC50) was 31 µM.

Consider `Cc1ccc(C)c(S(=O)(=O)Nc2ccc(C(=O)NCC3CC3)cc2)c1` [Example 40, N-(cyclopropylmethyl)-4-((2,5-dimethylphenyl)sulfonamido)benzamide], for which the AC50 is greater than 100 µM.

Turning to `Cc1ccc(C)c(S(=O)(=O)Nc2cccc(C(=O)N3CCCCCC3)c2)c1` [Example 32, N-(3-(azepane-1-carbonyl)phenyl)-2,5-dimethylbenzenesulfonamide], the AC50 worked out at 35 µM.

With `Cc1ccc(C)c(S(=O)(=O)Nc2cccc(C(=O)N3CCSCC3)c2)c1` [Example 24, 2,5-dimethyl-N-(3-(thiomorpholine-4-carbonyl)phenyl)benzenesulfonamide], the half-maximal activity concentration (AC50) was greater than 100 µM.

As to `Cc1cc(S(=O)(=O)Nc2csc(-c3ccncc3)n2)c(C)cc1Cl` [Example 176, 4-chloro-2,5-dimethyl-N-(2-(pyridin-4-yl)thiazol-4-yl)benzenesulfonamide], the AC50 stood at 0.4 µM.

For `Cc1cc(S(=O)(=O)Nc2nc(-c3ccccc3)co2)c(C)cc1Cl` [Example 157, 4-chloro-2,5-dimethyl-N-(4-phenyloxazol-2-yl)benzenesulfonamide], the AC50 was greater than 100 µM.

Regarding `Cc1cc(S(=O)(=O)Nc2cccc(C(=O)N3CCN(C)C[C@H]3C)c2)c(C)cc1Cl` [Example 54, (R)-4-chloro-N-(3-(2,4-dimethylpiperazine-1-carbonyl)phenyl)-2,5-dimethylbenzenesulfonamide], the AC50 stood at 21 µM.

Take `Cc1ccc(C)c(S(=O)(=O)Nc2ccc(C(=O)N3CCCC[C@H]3C)s2)c1` [Example 43, (R)-2,5-dimethyl-N-(5-(2-methylpiperidine-1-carbonyl)thiopheN-2-yl)benzenesulfonamide]: the AC50 turned out to be 51 µM.

Take `Cc1cnc(-c2cccc(NS(=O)(=O)c3cc(C)c(Cl)cc3C)c2)s1` [Example 21, 4-chloro-2,5-dimethyl-N-(3-(5-methylthiazol-2-yl)phenyl)benzenesulfonamide]: the AC50 worked out at 2 µM.

For the compound `Cc1ccc(C)c(S(=O)(=O)Nc2cccc(C(=O)NCc3ccccc3)c2)c1` [Example 28, N-benzyl-3-((2,5-dimethylphenyl)sulfonamido)benzamide], the AC50 was greater than 100 µM.

On to `Cc1cc(S(=O)(=O)Nc2nc(-c3ccccc3)cn2C)c(C)cc1Cl` [Example 159, 4-chloro-2,5-dimethyl-N-(1-methyl-4-phenyl-1H-imidazol-2-yl)benzenesulfonamide], for which the concentration at half-maximal activity (AC50) is greater than 100 µM.

With `Cc1cc(S(=O)(=O)Nc2cccc(C(=O)N(C)C(C)CO)c2)c(C)cc1Cl` (single isomer, unassigned) [Example 15, 3-((4-chloro-2,5-dimethylphenyl)sulfonamido)-N-(1-hydroxypropan-2-yl)-N-methylbenzamide], the concentration at half-maximal activity (AC50) came out at 30 µM.

Take `Cc1cc(S(=O)(=O)Nc2cn(Cc3ccccc3)cn2)c(C)cc1Cl` [Example 168, N-(1-benzyl-1H-imidazol-4-yl)-4-chloro-2,5-dimethylbenzenesulfonamide]: the AC50 is greater than 100 µM.

For the compound `COCCNC(=O)c1cccc(NS(=O)(=O)c2cc(C)c(Cl)cc2C)c1` [Example 47, 3-((4-chloro-2,5-dimethylphenyl)sulfonamido)-N-(2-methoxyethyl)benzamide], the AC50 was 39 µM.
